For test [1], the system named is phosphorylated tau at Thr212 in HEK293T cells. Nature of the test: pTau Thr212 sandwich ELISA in double-transfected HEK293T cells. It counts as cell-based, human. As to conditions: HEK293T co-transfected with DYRK1A and MAPT, overnight treatment, single lot, read-out: Cell assay EC50 pTau at Thr212. From the text: For the generation of the DYRK1A- and MAPT-overexpressing cells, HEK293T cells were transiently transfected with DYRK1A and MAPT genes. Specifically, expression vectors pCMV6-XL4 and pCMV6-Entry expressing DYRK1A and MAPT, alongside an empty vector control (pCI, OriGene, Catalog #SC314641 and RC216166, respectively; Promega, Catalog #E1731) and the material was amplified and purified using a custom MaxiPrep service (GENEWIZ, South Plainfield, NJ).
(§1) For ELISA assays, native SH-SY5Y cells, or transiently double-transfected HEK293T cells were dissociated by treatment with trypsin-EDTA and seeded in 96-well flat-bottom cell culturing plate before administration of 3-fold serial dilution of SM07883 overnight.
(§2) Following compound treatment, cells were washed and lysed with 1x RIPA buffer containing phosphatase and protease inhibitors transferred to 96-well V-bottom collection plates for centrifugation and removal of insoluble material.
The pTau Thr212 ELISA 96-well flat-bottom plates, were coated with anti-HT7 capture antibody (Catalog MN1000, Thermo Fisher, Waltham, […]) diluted 1:300 in 1X PBS at 4°C. After overnight incubation, coated plates were washed with 1× PBS containing 0.05% Tween-20 and blocked for 1hr 2% BSA (A7030-50G, Sigma-Aldrich, St. Louis, MO), then washed prior to sample loading.
For the pTau Thr212 sandwich ELISA, cell lysates were directly transferred to the anti-HT7 capture, antibody-coated, and BSA-blocked ELISA plates for 2hrs. Supernatant was then removed, and plates were washed with 1× PBS-0.05% Tween-20, followed by addition of 100 µL per well anti-phosphorylated tau Thr212 antibody (Catalog 44-740G, Thermo Fisher) diluted 1:200 in 1× PBS for 2hrs. Plates were washed and probed with an anti-rabbit/HRP conjugate (Cell Signaling Technology, 7074S) for 1hr then washed before a TMB substrate solution (Catalog N301, Thermo Fisher) was added. When a deep blue color was observed, 100 µL per well of stop solution (Catalog N600, Thermo Fisher) was added.
(§3) Colorimetric detection of pT212Tau or pS396Tau signal was read at 450 nm using the Cytation 3 Cell Imaging Multi-Mode Reader (BioTek, Winooski, VT). The signal was used to plot, draw the curve fitting, and determine the EC50 value for SM07883 in Prism 7 (GraphPad, La Jolla, CA).

Test [2] deals with phosphorylated tau at Ser396 in SH-SY5Y cells. Nature of the test: pSer396Tau ELISA in SH-SY5Y neuroblastoma cells. The format is cell-based, human. As to conditions: overnight (16 hr) treatment, single lot, read-out: Cell assay EC50 pTau at Ser396.
Description: as §1, §2, §3

The next test concerns the target T1, DYRK1a (Homo sapiens, UniProt Q13627).
T1 construct: purchased Thermo Fisher Scientific
Nature of the test: DYRK1A kinase assay (Z-Lyte / SelectScreen IC50). The format is biochemical. As to conditions: Suppl. Table 2 comparison with commercially available inhibitors.

For another test, the target named is T2, GSK‐3β (Homo sapiens, UniProt P49841).
T2 construct: purchased Thermo Fisher SelectScreen service
T2 sequence (P49841 whole entry): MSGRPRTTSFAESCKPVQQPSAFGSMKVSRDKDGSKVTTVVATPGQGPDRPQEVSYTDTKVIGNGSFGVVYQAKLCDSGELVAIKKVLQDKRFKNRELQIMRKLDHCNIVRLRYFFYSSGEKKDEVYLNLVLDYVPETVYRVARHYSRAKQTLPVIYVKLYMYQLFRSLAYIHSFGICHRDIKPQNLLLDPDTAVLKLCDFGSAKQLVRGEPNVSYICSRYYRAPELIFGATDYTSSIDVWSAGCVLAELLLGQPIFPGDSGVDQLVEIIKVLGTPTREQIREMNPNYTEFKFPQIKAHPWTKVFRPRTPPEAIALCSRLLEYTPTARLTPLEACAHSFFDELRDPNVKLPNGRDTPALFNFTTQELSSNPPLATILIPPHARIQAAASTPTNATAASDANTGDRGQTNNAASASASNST
Nature of the test: Kinase IC50 (SelectScreen). It counts as biochemical. As to conditions: Suppl. Table 2 comparison with commercially available inhibitors; read-out: Kinase IC50 GSK-3b.

Data on 10 molecules can be found in publication PMC6718548, “Tau pathology reduction with SM07883, a novel, potent, and selective oral DYRK1A inhibitor: A potential therapeutic for Alzheimer's disease” (Aging Cell, 2019).

pEC50, pIC50: −log10 of the molar value. Read-outs that look alike come from different tables or passages of the source.

Turning to `Cc1c[nH]c(-c2cnc(NCCNc3ccc(C#N)cn3)nc2-c2ccc(Cl)cc2Cl)n1` [CHIR-99021], the pEC50 was less than 5.00 in test [1] (Homo sapiens, HEK-293T) and 6.60 in test [2] (Homo sapiens).

With `O=C(O)c1ccc2c(c1)nc(Nc1cccc(Cl)c1)c1ccncc12` [CX-4945], the pEC50 in test [1] (Homo sapiens, HEK-293T) was 6.37; in test [2] (Homo sapiens), 5.28.

For the molecule `Cc1ccc(C(=O)Nc2c[nH]nc2C(=O)NCCCOC(C)C)cn1` [Compound A, 6-Methyl-N-[3-[[3-(1-methylethoxy)propyl]carbamoyl]-1H-pyrazol-4-yl]pyridine-3-carboxamide], the pEC50 in test [1] (Homo sapiens, HEK-293T) is less than 5.00; in test [2] (Homo sapiens), 8.22. The molecule further had a negative logarithm of the IC50 (pIC50) at DYRK1a of 6.12.

As to `O=C(O[C@@H]1Cc2c(O)cc(O)cc2O[C@@H]1c1cc(O)c(O)c(O)c1)c1cc(O)c(O)c(O)c1` [EGCG, Epigallocatechin gallate], the pEC50 in test [1] and in test [2] was less than 5.00 throughout. The values for the pIC50 at GSK‐3β and at DYRK1a were less than 5.00 and 5.85, respectively.

On to `COC(=N)c1nc2ccc3ncnc(Nc4ccc(Cl)cc4Cl)c3c2s1` [EHT-5372], for which the values for the pEC50 in test [1] and in test [2] were 5.42 and 5.60, respectively. Moreover, the results for the pIC50 on GSK‐3β and against DYRK1a were less than 5.00 and 7.08, respectively.

Regarding `COc1ccc2c(c1)[nH]c1c(C)nccc12` [Harmine], the pEC50 in test [1] (Homo sapiens, HEK-293T) was 6.63; in test [2] (Homo sapiens), less than 5.00.

Regarding `CCN1/C(=C/C(C)=O)Sc2ccc(O)cc21` [INDY], the pEC50 in test [1] and in test [2] was less than 5.00 each time. Further, at GSK‐3β, the pIC50 was less than 5.00.

Turning to `O=C1NC(Nc2ccccc2)=N/C1=C\c1ccc2c(c1)OCO2` [Leucettine L41], the pEC50 is 7.14 in test [1] and 5.85 in test [2]. At GSK‐3β, the pIC50 was 5.96.

As for `CCN1/C(=C/C(C)=O)Sc2ccc(OC)cc21` [TG003], the pEC50 in test [1] and in test [2] was less than 5.00 throughout. Further, the pIC50 at GSK‐3β is less than 5.00.

`O=c1sn(-c2cccc3ccccc23)c(=O)n1Cc1ccccc1` [Tideglusib]: the pEC50 was less than 5.00 in test [1] (Homo sapiens, HEK-293T) and less than 5.00 in test [2] (Homo sapiens).
